Experimental data taken from PMC7157554, “Anti-Trypanosomal Proteasome Inhibitors Cure Hemolymphatic and Meningoencephalic Murine Infection Models of African Trypanosomiasis” (Tropical Medicine and Infectious Disease, 2020).
≈ marks a conversion by molar mass, not a printed value. Like-named read-outs stand apart in the source and are kept apart here.

Legend:
[1] = tested on: T. b. brucei strain Lister 427 (bloodstream form); experiment: T. b. brucei growth inhibition assay (CellTiter-Glo, 48 h); assay type: cell-based, Trypanosoma brucei brucei
Method: The T. b. brucei strain Lister 427 (bloodstream form) parasites were continuously grown in complete HMI-9 medium supplemented with 10% Serum Plus and 10% heat-inactivated fetal bovine serum (FBS). All other parasite strains were cultured as described elsewhere.
For determination of 50% growth inhibition, all compounds were dissolved in DMSO, and 200 nL of threefold serially diluted compounds were added into solid-bottom 384-well white plates (Greiner Bio-One, Kremsmunster, Austria) by an Echo 555 acoustic liquid-handling system. Forty microliters of 10^4 cells/mL of T. b. brucei parasites was added into each well, and the plates were incubated in a 5% CO2 incubator at 37 °C for 48 h. Viability of parasites were determined by measuring intracellular ATP levels, using CellTiter-Glo (CTG) luminescent cell viability reagent (Promega, Madison, Wisconsin WI, USA). The EC50 values were determined by using GraphPad Prism software. Growth inhibition assays for all clinical isolates were carried out as described earlier. All experiments had two technical replicates and three biological replicates. Appropriate statistical tests were used for evaluating significance, and mean ± SEM is represented in the tables.

[2] = High-throughput thermodynamic solubility assay; assay type: physicochemical; conditions: for solubility: pH 6.8, thermodynamic from solid
Method: (§1) Test compounds’ solubility was determined in a high-throughput thermodynamic solubility assay, as described previously. The PAMPA (parallel artificial membrane) assays were carried out, using a standard protocol. Plasma protein binding was determined by using mouse blood, whilst brain tissue binding was determined by using rat brain tissue homogenate. Intrinsic metabolic clearances were determined in mouse liver microsomes, using the compound depletion approach and LC–MS/MS quantification.

Rat brain tissue binding = assay type: in vitro ADME; conditions: rat brain tissue homogenate
Method: as §1

[3] = tested on: HepG2 (human hepatocellular carcinoma) cells; experiment: HepG2 cytotoxicity assay (CCK-8, 96 h); assay type: cell-based; conditions: mean ± SEM
Method: The HepG2 (human hepatocellular carcinoma) cells were obtained from ATCC (American Type Culture Collection) and grown in RPMI media. Cytotoxicity assay was performed in 384-well format, and 25 µL, approximately 1.6 × 10^4 cells/mL, suspension was added to clear-bottom 384-well Griener plates and incubated in 5% CO2 incubator, at 37 °C for 24 h. Once the cells adhered, 125 nL of threefold serially diluted compounds in DMSO was added. Plates were incubated for 96 h, at 37 °C, in a 5% CO2 incubator. Plates were read for viability by adding 10 µL of CCK-8 reagent (APExBIO) into each well, followed by 3 h incubation and absorbance reading at […], using an Envision plate reader. […] Puromycin was used as a positive control. All experiments had two technical replicates and three biological replicates. Appropriate statistical tests were used for evaluating significance, and mean ± SEM is represented in the tables.

| Structure (SMILES) | EC50 ([1]; Lister 427 bloodstream form, mean ± SEM, read-out: T. b. brucei EC50) | EC50 ([1]; Trypanosoma brucei, read-out: T. b. brucei EC50, Lister 427 bloodstream form, 48 h, mean ± SEM) | solubility [2] | BTB (rat brain tissue binding) (Rat brain tissue binding) | Solubility pH 6.8 ([2]; pH 6.8) | HepG2 CC50 [3] |
| --- | --- | --- | --- | --- | --- | --- |
| Cc1nc(C)c(C(=O)Nc2ccc(F)c(-c3nc4ncc(-c5ccccn5)cn4n3)c2)o1 [GNF6702] | 70 ± 3 nM | < 70 nM |  |  |  |  |
| Cc1nc(C)c(C(=O)Nc2ccc(F)c(-c3nc4ncc(C(C)(C)C)cn4n3)c2)o1 [NITD689] |  |  | 71 µg/mL (≈ 174 µM) | 96.5% |  |  |
| Cc1nc(C)c(C(=O)Nc2ccc(F)c(-c3nc4ncc(-c5ccccc5)cn4n3)c2)o1 [GNF3849] |  |  | < 2 µg/mL | >99% | poor | cytotoxic |
